Experimental data: US12083084B2, “Method for enhancing energy production and metabolism in cells” (REPLICON HEALTH OY, priority 2013, dated 2024)
Several values for one entry are separate records, joined by “and”; a condition that tells them apart may be missing. Equal values may be shown once. Marks after values point to notes of the source that are not given here.

Columns and labels:
[1] = 4.5 day acute test, wide blood panel (Example 2.3.1); format: in vivo, human; conditions: for increased level of blood triglycerides: 4.5 day test
Description: In earlier in vivo experiments (Example 2.1 and 2.2) the last DGAcs was taken in previous night. In this Example the last dose was double in size (=some 10 mg/kg), and it was taken in the same morning as the collection of blood samples. Higher than “normal” therapeutic dose and short time to blood measurement was chosen in order to see a clearer dose response compared to zero control. On top of very wide blood panel, like in Examples 2.1 and 2.2, also gene expression analyses from peripheral leukocytes (Example 2.3.2 below), and concentration analyses from collected plasma samples (Example 2.3.3) was conducted. Also glucose tolerance test and related insulin measurements (Example 2.3.4 below) was conducted. By comparing results of subject 1 (S1) from Example 2.1 and in Example 2.3.1 (below), it is fairly straightforward to see that this “high dose and immediate response strategy” was efficient, and it produced even very important deviations in some parameters due to different administrations.
In this Example the 4 day experiment in Example 2.1 was extended into 4.5 day experiment by additional DGAcs dose in the morning before blood measurement. Same wide fasting blood panel consisting of 25 different metrics and full blood count was measured for all participants (sample analytics by United Medix Laboratories, Finland).
Two healthy volunteers (S1 and S9) and two (otherwise healthy) volunteers using statin medication (S10 and S11) were chosen for the experiment. The test set up was double blinded. S1 had participated in the earlier 4 day experiment (see Table 3 above and also to a 3 week pilot testing) and served as an important positive control on the efficacy of the DGAcs. Statin group on the other hand was chosen as some kind of a negative control because statins to some extend can possibly counter act the positive effects of the DGAcs and on the other hand also have similar health effects. Statins suppress mevalonate pathway by inhibiting HMG Coa reductase activity and also disturb balancing of cellular NADPH/NADP^+ levels (FIGS. 3b and 4). […] Statin treatment group was not expected to yield positive results but possibly vice versa. For S10 the statin dose was halved two weeks before the test from 20 mg to 10 mg (Simvastatin). For S11 statin treatment was kept at 20 mg per day (also Simvastatin).

[2] = Hepatic free glycerol after 3 week feeding; format: in vivo, rat
Source text: From the above experiment altogether 12 rats were chosen from 0.1 g/kg/day DGAcs group (N=6) and zero control (N=6) for a measurement of free glycerol from liver samples. Liver samples contained also blood entering the liver from other tissues, thus on top of hepatic tissues the samples reflect also the metabolic situation in other tissues of the body than just the liver.
In this experiment nutrition intake, except of course for DGAcs, was controlled to be exactly the same during the experimental day, and three day before the experiment. For AA rats, that are used to alcohol but didn't receive any alcohol in 3 day before the experiment, catabolic redox-activity in the cytosol was controlled by giving rats ethanol (equaling 1.2 per mille blood alcohol concentration, which represents only mild alcohol intoxication to the AA rats). The rate of ethanol oxidation remained the same in all groups.
Experimental session started at 8:00 to 9:00 am. To diminish possible pain during the experiments, all animals were injected subcutaneously with buprenorphine (0.01 mg/kg) a few minutes before the blood samples. During the experimental session no difference in other metabolic activity, e.g. rate of ethanol oxidation, between the control and treatment group was detected from blood samples. Immediately after the last blood sample, the animals were anesthetized with pentobarbital (40 mg/kg IP, 1% [wt/vol] in saline). Thereafter (5-10 minutes), liver pieces were quickly (within 2-4 seconds) excised and freeze-clamped. Liver samples were stored at […] until glycerol determination. […] The resulting supernatants were used for free glycerol measurement with an enzymatic end point commercial assay kit (Boehringer-Mannheim, R-Biopharm, Darmstadt, Germany) according to the manufacturer's protocol except that the assays were modified for use with small volumes of supernatant using a 96-well microplate reader (Labsystems Multiskan RS, Helsinki, Finland). […]

[3] = 4.5 day, 5 mg/kg twice a day, last dose 10 mg/kg, 2.5 hours after last dose, healthy males S1 and S9, fasting blood, vs 0-control

## O.O.O=C([O-])[C@H](O)CO.O=C([O-])[C@H](O)CO.[Ca+2] [DGAcs, D-glyceric acid, calcium salt dehydrate]
[1]; [3]
  HDL, 4.5 day change: 1% and −1%
  S-Afos, 4.5 day change: 8% and 12%
  S-Alb, 4.5 day change: 5% and 10%
  S-Amyl, 4.5 day change: −5% and −3%
  S-Cal, 4.5 day change: 4% and 3%
  S-LDH, 4.5 day change: −4% and −7%
  S-Mg, 4.5 day change: 5% and 0%
  S-Na, 4.5 day change: 1%
  S-Uraat, 4.5 day change: 4% and −1%
  fS-Gluk, 4.5 day change: −2% and 4%
  fS-Krea, 4.5 day change: 3% and 9%
  fS-Transf, 4.5 day change: 5% and 8%
  fS-Trigly, 4.5 day change: −3% and −5%
[1]; S1, 4.5 day test
  blood LDH declined: 4%
  blood urea decline: 7%
  creatine kinase (S-CK) declined: 14%
[1]; S1, 4.5 day test (zero control 1.32)
  AST/ALT (ratio) after treatment: 0.96
[1]; S10, statin group (Simvastatin 10 mg)
  increased level of blood triglycerides: +83.5%
[1]; S11, statin group (Simvastatin 20 mg)
  increased level of blood triglycerides: +25.6%
[2]; 0.1 g/kg group
  glycerol levels increased compared to the control: 59%
  increase in the concentration of free glycerol compared to the control samples: roughly 0.17 g/kg
[2]; 0.1 g/kg per day in diet for 3 weeks, AA rats, n = 6, no acute dose
  Free glycerol concentration (hepatic, including extracellular matrix): 4.88 +/− 1.21 (6) * Micromoles Per Gram Wet Weight Tissue
